Experimental data published in the supplement of paper PMC10307832.

How the values were obtained:
Experiment in all cases: relative viability (nuclei count vs DMSO), 5 days (fraction); higher = more cells survive
[1] = tested on: H3255
Method in brief: (§1)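 Lung cancer cell lines were pin-tool dosed in 1536-well plates on the day after seeding, with either a lone drug or a fixed anchor-drug dose plus five library-drug doses (not always all listed) in √10 steps. Nuclei were counted on 4× images after 5 days. Relative viability is the ratio of treated-well to vehicle-well nuclei counts, with each value a median of duplicate plates.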

[2] = tested on: LCLC-97TM1
Method in brief: as §1

[3] = tested on: NCI-H1993
Method in brief: as §1

[4] = tested on: NCI-H661
Method in brief: as §1

[5] = tested on: NCI-H2085
Method in brief: as §1

[6] = tested on: NCI-H2023
Method in brief: as §1

[7] = tested on: NCI-H1915
Method in brief: as §1

[8] = tested on: EPLC-272H
Method in brief: as §1

[9] = tested on: HOP-62
Method in brief: as §1

[10] = tested on: NCI-H2126
Method in brief: as §1

[11] = tested on: NCI-H2347
Method in brief: as §1

[12] = tested on: EMC-BAC-2
Method in brief: as §1

[13] = tested on: SW 1573
Method in brief: as §1

[14] = tested on: LXF-289
Method in brief: as §1

[15] = tested on: PC-14
Method in brief: as §1

[16] = tested on: NCI-H2009
Method in brief: as §1

[17] = tested on: NCI-H1734
Method in brief: as §1

[18] = tested on: NCI-H647
Method in brief: as §1

[19] = tested on: NCI-H322M
Method in brief: as §1

[20] = tested on: NCI-H727
Method in brief: as §1

[21] = tested on: NCI-H1563
Method in brief: as §1

[22] = tested on: SK-LU-1
Method in brief: as §1

In the case of `Nc1ccn([C@@H]2O[C@H](CO)[C@@H](O)[C@@H]2O)c(=O)n1` [Cytarabine] + COc1cc2c(Oc3ccc(NC(=O)C4(C(=O)Nc5ccc(F)cc5)CC4)cc3F)ccnc2cc1OCCCN1CCOCC1 [Foretinib] (partner 0.25 µM), the relative viability ([1]; first compound 0.005 µM) was 0.889, the relative viability ([1]; first compound 0.01581 µM) was 0.905 and the relative viability ([1]; first compound 0.05 µM) was 0.628. The relative viability ([1]; first compound 0.1581 µM) was 0.665, the relative viability ([1]; first compound 0.5 µM) was 0.531 and the relative viability ([2]; first compound 0.005 µM) was 0.924. It also gave a relative viability ([2]; first compound 0.01581 µM) of 0.814, a relative viability ([2]; first compound 0.05 µM) of 0.749 and a relative viability ([2]; first compound 0.1581 µM) of 0.469. The relative viability ([2]; first compound 0.5 µM) was 0.485, the relative viability ([3]; first compound 0.005 µM) was 0.843 and the relative viability ([3]; first compound 0.01581 µM) was 0.889. It also gave a relative viability ([3]; first compound 0.05 µM) of 0.726, a relative viability ([3]; first compound 0.1581 µM) of 0.485 and a relative viability ([3]; first compound 0.5 µM) of 0.468. The relative viability ([4]; first compound 0.005 µM) was 0.93, the relative viability ([4]; first compound 0.01581 µM) was 0.942 and the relative viability ([4]; first compound 0.05 µM) was 0.884. The relative viability ([4]; first compound 0.1581 µM) was 0.68, the relative viability ([4]; first compound 0.5 µM) was 0.519 and the relative viability ([5]; first compound 0.005 µM) was 0.994. For the same molecule, the relative viability ([5]; first compound 0.01581 µM) was 0.847, the relative viability ([5]; first compound 0.05 µM) was 0.75 and the relative viability ([5]; first compound 0.1581 µM) was 0.555. For the same molecule, the relative viability ([5]; first compound 0.5 µM) was 0.475, the relative viability ([6]; first compound 0.005 µM) was 0.535 and the relative viability ([6]; first compound 0.01581 µM) was 0.502. The relative viability ([6]; first compound 0.05 µM) was 0.158, the relative viability ([6]; first compound 0.1581 µM) was 0.101 and the relative viability ([6]; first compound 0.5 µM) was 0.0682. It also gave a relative viability ([7]; first compound 0.005 µM) of 1.11, a relative viability ([7]; first compound 0.01581 µM) of 1.02 and a relative viability ([7]; first compound 0.05 µM) of 1.01. The relative viability ([7]; first compound 0.1581 µM) was 0.771, the relative viability ([7]; first compound 0.5 µM) was 0.757 and the relative viability ([8]; first compound 0.005 µM) was 0.639. It also gave a relative viability ([8]; first compound 0.01581 µM) of 0.477, a relative viability ([8]; first compound 0.05 µM) of 0.461 and a relative viability ([8]; first compound 0.1581 µM) of 0.196. For the same molecule, the relative viability ([8]; first compound 0.5 µM) was 0.234, the relative viability ([9]; first compound 0.005 µM) was 0.904 and the relative viability ([9]; first compound 0.01581 µM) was 0.875. For the same molecule, the relative viability ([9]; first compound 0.05 µM) was 0.45, the relative viability ([9]; first compound 0.1581 µM) was 0.137 and the relative viability ([9]; first compound 0.5 µM) was 0.142. It also gave a relative viability ([10]; first compound 0.005 µM) of 1.01, a relative viability ([10]; first compound 0.01581 µM) of 1.03 and a relative viability ([10]; first compound 0.05 µM) of 1.1. For the same molecule, the relative viability ([10]; first compound 0.1581 µM) was 0.922, the relative viability ([10]; first compound 0.5 µM) was 0.694 and the relative viability ([11]; first compound 0.005 µM) was 1.32. It also gave a relative viability ([11]; first compound 0.01581 µM) of 1.43, a relative viability ([11]; first compound 0.05 µM) of 0.806 and a relative viability ([11]; first compound 0.1581 µM) of 0.463. It also gave a relative viability ([11]; first compound 0.5 µM) of 0.343, a relative viability ([12]; first compound 0.005 µM) of 0.954 and a relative viability ([12]; first compound 0.01581 µM) of 0.831. The relative viability ([12]; first compound 0.05 µM) was 0.305, the relative viability ([12]; first compound 0.1581 µM) was 0.282 and the relative viability ([12]; first compound 0.5 µM) was 0.226. It also gave a relative viability ([13]; first compound 0.005 µM) of 0.929, a relative viability ([13]; first compound 0.01581 µM) of 0.688 and a relative viability ([13]; first compound 0.05 µM) of 0.881. It also gave a relative viability ([13]; first compound 0.1581 µM) of 0.464, a relative viability ([13]; first compound 0.5 µM) of 0.202 and a relative viability ([14]; first compound 0.005 µM) of 0.939. The relative viability ([14]; first compound 0.01581 µM) was 0.961, the relative viability ([14]; first compound 0.05 µM) was 0.749 and the relative viability ([14]; first compound 0.1581 µM) was 0.412. The relative viability ([14]; first compound 0.5 µM) was 0.299, the relative viability ([15]; first compound 0.005 µM) was 0.808 and the relative viability ([15]; first compound 0.01581 µM) was 0.914. It also gave a relative viability ([15]; first compound 0.05 µM) of 1.02, a relative viability ([15]; first compound 0.1581 µM) of 0.536 and a relative viability ([15]; first compound 0.5 µM) of 0.349. The relative viability ([16]; first compound 0.005 µM) was 1.23, the relative viability ([16]; first compound 0.01581 µM) was 1.22 and the relative viability ([16]; first compound 0.05 µM) was 1.19. It also gave a relative viability ([16]; first compound 0.1581 µM) of 0.981, a relative viability ([16]; first compound 0.5 µM) of 0.503 and a relative viability ([17]; first compound 0.005 µM) of 0.553. For the same molecule, the relative viability ([17]; first compound 0.01581 µM) was 0.373, the relative viability ([17]; first compound 0.05 µM) was 0.205 and the relative viability ([17]; first compound 0.1581 µM) was 0.164. It also gave a relative viability ([17]; first compound 0.5 µM) of 0.124, a relative viability ([18]; first compound 0.005 µM) of 0.625 and a relative viability ([18]; first compound 0.01581 µM) of 0.617. The relative viability ([18]; first compound 0.05 µM) was 0.282, the relative viability ([18]; first compound 0.1581 µM) was 0.109 and the relative viability ([18]; first compound 0.5 µM) was 0.11. For the same molecule, the relative viability ([19]; first compound 0.005 µM) was 0.827, the relative viability ([19]; first compound 0.01581 µM) was 0.761 and the relative viability ([19]; first compound 0.05 µM) was 0.677. For the same molecule, the relative viability ([19]; first compound 0.1581 µM) was 0.464, the relative viability ([19]; first compound 0.5 µM) was 0.336 and the relative viability ([20]; first compound 0.005 µM) was 0.656. For the same molecule, the relative viability ([20]; first compound 0.01581 µM) was 0.681, the relative viability ([20]; first compound 0.05 µM) was 0.597 and the relative viability ([20]; first compound 0.1581 µM) was 0.488. It also gave a relative viability ([20]; first compound 0.5 µM) of 0.397, a relative viability ([21]; first compound 0.005 µM) of 0.869 and a relative viability ([21]; first compound 0.01581 µM) of 0.875. For the same molecule, the relative viability ([21]; first compound 0.05 µM) was 0.869, the relative viability ([21]; first compound 0.1581 µM) was 0.846 and the relative viability ([21]; first compound 0.5 µM) was 0.73. It also gave a relative viability ([22]; first compound 0.005 µM) of 0.735, a relative viability ([22]; first compound 0.01581 µM) of 0.759 and a relative viability ([22]; first compound 0.05 µM) of 0.538. The relative viability ([22]; first compound 0.1581 µM) was 0.302 and the relative viability ([22]; first compound 0.5 µM) was 0.23.
